Values after ≈ are worked out from the molar mass of the structure shown. Structures can show the parent of a compound that is named as a salt. One block for each compound: values may come before it.
Assays:
[1] = Diamod® fed state: indinavir sulfate with protein meal (Ensure® plus) or carbohydrate meal, high or low bile salts
[2] = water intake versus no water, cited from earlier work
[3] = Diamod® fasted state: 20 mL Sporanox® solution without or with 240 mL water (stomach, duodenum, permeate); type: in vitro ADME
Protocol: The stomach vessel accepts gastric secretions (Flow rate F1) and is continuously emptied (Flow rate F2) into the second reactor vessel which simulates the lumen of the duodenum and the blood stream that accepts the permeated fraction. […] The geometry of the inner donor compartment is designed to contain biorelevant duodenal volumes (30 mL), to generate a permeation surface area of 65 cm^2 and to result in a permeation surface area to donor volume ratio of 2 cm^−1.

[4] = ref Bevernage et al., 2012; cited from earlier work
[5] = high carbohydrate meal; ref Carver et al. (1999); cited from earlier work
[6] = fed, carbohydrate meal, high bile salts

Cmax total in the duodenum [1, 6]: 504.3 ± 3.1 µM
Cmax total in the stomach [1, 6]: 1225.5 ± 19.9 µM
Cmax total in the duodenum ([1]; fed, high protein meal): 514.8 ± 16.5 µM
Cmax total in the stomach ([1]; fed, high protein meal (Ensure® Plus)): 1386.0 ± 120.11 µM
duodenal solute concentrations ([1]; fed, high protein meal, after bile salts decreased towards fasted levels): around 100 μM
supersaturation state in the duodenum ([1]; fed, high protein meal, period of high bile salts): not in a state of supersaturation
SMILES: CC(C)(C)NC(=O)[C@@H]1CN(Cc2cccnc2)CCN1C[C@@H](O)C[C@@H](Cc1ccccc1)C(=O)N[C@H]1c2ccccc2C[C@H]1O [indinavir]
supersaturation state in the duodenum [1, 6]: supersaturated throughout the transit through the duodenum
supersaturation state in the duodenum ([1]; fed, carbohydrate meal, low bile salts): supersaturating throughout the transit through the duodenum

additional precipitation in the duodenum upon water intake ([3]; difference of solute and total AUC reduction): 24.0%
dissolution state during transit through the stomach ([3]; independently of water intake): completely dissolved
decrease in AUC0-180min of permeated drug ([3]; water intake versus no water): 3.2%
decrease in stomach solute AUC0-180min ([3]; water intake versus no water): 47%
decrease in stomach total AUC0-180min ([3]; water intake versus no water): 45%
decrease of duodenal AUC0-180min of solute concentration ([3]; water intake versus no water): 56.1%
fold decrease of stomach AUC0-180min of solute itraconazole ([3]; water intake versus no water): 1.9 fold
reduction of duodenal AUC0-180min of total concentration ([3]; water intake versus no water): 32.1%
SMILES: CCC(C)n1ncn(-c2ccc(N3CCN(c4ccc(OCC5COC(Cn6cncn6)(c6ccc(Cl)cc6Cl)O5)cc4)CC3)cc2)c1=O (stereo not drawn) [itraconazole]
reduction (times) in average dissolved gastric AUC0-3h ([2]; in vivo, ref Berben et al., 2017): 1.8 times
solubility in FaSSGF [4]: 2.7 µM (≈ 1.91 µg/mL)

decrease in average duodenal solute concentration AUC0–240min ([1]; fed high protein meal versus fasted): 34.2%
SMILES: CC(C)(C)NC(=O)[C@@H]1CN(Cc2cccnc2)CCN1C[C@@H](O)C[C@@H](Cc1ccccc1)C(=O)N[C@H]1c2ccccc2C[C@H]1O [indinavir sulfate]
increase of Tmax [5]: approximately 3 h

SMILES: CC(O)COC[C@H]1O[C@@H]2O[C@H]3[C@H](O)[C@@H](O)[C@@H](O[C@H]4[C@H](O)[C@@H](O)[C@@H](O[C@H]5[C@H](O)[C@@H](O)[C@@H](O[C@H]6[C@H](O)[C@@H](O)[C@@H](O[C@H]7[C@H](O)[C@@H](O)[C@@H](O[C@H]8[C@H](O)[C@@H](O)[C@@H](O[C@H]1[C@H](O)[C@H]2O)O[C@@H]8COCC(C)O)O[C@@H]7COCC(C)O)O[C@@H]6COCC(C)O)O[C@@H]5COCC(C)O)O[C@@H]4COCC(C)O)O[C@@H]3COCC(C)O (stereo partly drawn) [2-HP-β-CD, 2-hydroxypropyl-β-cyclodextrin]
fold decrease in duodenal AUC0-3h ([2]; in vivo duodenal aspirates, ref Berben et al. (2018c)): 2.3 fold

Source: paper PMC10314207, “The Dynamic Intestinal Absorption Model (Diamod®), an in vitro tool to study the interconnected kinetics of gastrointestinal solubility, supersaturation, precipitation, and intestinal permeation processes of oral drugs” (International Journal of Pharmaceutics: X, 2023)
